From patent US4843079A, “Fused heteroalkylene quinolinamines” (Hoechst-Roussel Pharmaceuticals, Inc., priority 1988, dated 1989) come the findings set out here.

As a reminder, the IC50 is the point on the concentration scale where inhibition reaches its midpoint.

One assay addresses acetylcholinesterase (Homo sapiens, UniProt P22303). Kind of assay: biochemical.
Assay [1] relates to scopolamine Induced Memory Deficit. In words: Dark Avoidance Assay (scopolamine-impaired memory). The format is in vivo. Particulars: mice, retested 24 hours later. The procedure:
This utility of the compounds of the present invention mentioned above can also be ascertained by determining the ability of these compounds to restore cholinergically deficient memory in the Dark Avoidance Assay. In this assay mice are tested for their ability to remember an unpleasant stimulus for a period of 24 hours. A mouse is placed in a chamber that contains a dark compartment; a strong incandescent light drives it to the dark compartment, where an electric shock is administered through metal plates on the floor. The animal is removed from the testing apparatus and tested again, 24 hours later, for the ability to remember the electric shock.
If scopolamine, an anticholinergic that is known to cause memory impairment, is administered before an animal's initial exposure to the test chamber, the animal re-enters the dark compartment shortly after being placed in the test chamber 24 hours later. This effect of scopolamine is blocked by an active test compound, resulting in a greater interval before re-entry in the dark compartment.
The results for an active compound are expressed as the percent of a group of animals in which the effect of scopolamine is blocked, as manifested by an increased interval between being placed in the test chamber and re-entering the dark compartment.

[2] abbreviates: photometric method of Ellman et al., read-out: IC50, Cholinesterase Inhibition.

Structures can show the parent of a compound that is named as a salt. Where two headings read alike, the source gives them in different places.

acetylcholinesterase, sequence (P22303 32-614): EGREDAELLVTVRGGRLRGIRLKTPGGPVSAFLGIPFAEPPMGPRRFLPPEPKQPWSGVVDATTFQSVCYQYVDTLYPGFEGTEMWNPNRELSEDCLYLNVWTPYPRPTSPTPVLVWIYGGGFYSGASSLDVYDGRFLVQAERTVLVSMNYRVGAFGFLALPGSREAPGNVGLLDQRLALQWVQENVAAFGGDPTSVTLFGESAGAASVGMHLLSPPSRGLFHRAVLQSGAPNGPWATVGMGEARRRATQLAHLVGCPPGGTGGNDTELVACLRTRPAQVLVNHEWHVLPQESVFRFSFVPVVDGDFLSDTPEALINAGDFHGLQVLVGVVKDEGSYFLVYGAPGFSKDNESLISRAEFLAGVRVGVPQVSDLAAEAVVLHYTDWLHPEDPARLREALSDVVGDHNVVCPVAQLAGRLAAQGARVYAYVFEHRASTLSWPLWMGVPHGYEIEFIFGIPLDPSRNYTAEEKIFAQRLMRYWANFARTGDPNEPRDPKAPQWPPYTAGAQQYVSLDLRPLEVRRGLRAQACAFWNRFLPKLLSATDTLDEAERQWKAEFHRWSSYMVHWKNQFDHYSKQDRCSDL

Consider `Nc1c2c(nc3ccccc13)CCOC2` [10-Amino-3,4-dihydro-1H-pyrano[4,3-b]quinoline fumarate], for which the IC50 on acetylcholinesterase (setting [2]) was 200 nM. For `Nc1c2c(nc3ccccc13)CCS2` [9-amino-2,3-dihydrothieno[3,2-b]quinoline], the IC50 on acetylcholinesterase (setting [2]) came to 440 nM. On acetylcholinesterase, `Nc1c2c(nc3cc(C(F)(F)F)ccc13)CCSC2` [10-amino-3,4-dihydro-7-trifluoromethyl-1H-thiopyrano[4,3-b]quinoline] registered an IC50 of 640 nM. In the case of `CNC(=O)Oc1ccc2c(c1)[C@]1(C)CCN(C)[C@@H]1N2C` [Physostigmine, reference compound], in assay [1] (dose 0.31 mg/kg body weight), the “% of animals with scopolamine Induced Memory Deficit Reversed” value (“% of animals” below) was found to be 20%. As to `Nc1c2c(nc3ccccc13)CCSC2` [10-amino-3,4-dihydro-1H-thiopyrano[4,3-b]quinoline], at acetylcholinesterase (setting [2]), the IC50 was found to be 970 nM. Also, the “% of animals” value in assay [1] (dose 0.16 mg/kg body weight) came to 27%. Turning to `c1ccc(CNc2c3c(nc4ccccc24)CCSC3)cc1` [10-benzylamino-3,4-dihydro-1H-thiopyrano[4,3-b]quinoline hydrochloride], the IC50 against acetylcholinesterase was 3900 nM. Regarding `Nc1c2c(nc3cc(F)ccc13)CCSC2` [10-amino-3,4-dihydro-7-fluoro-1H-thiopyrano [4,3-b]quinoline], the IC50 on acetylcholinesterase (setting [2]) came out at 150 nM. For the same compound, the “% of animals” value in assay [1] (dose 0.31 mg/kg body weight) was found to be 67%. Turning to `Cc1ccc2c(N)c3c(nc2c1)CCSC3` [10-amino-3,4-dihydro-7-methyl-1H-thiopyrano[4,3-b]quinoline], the IC50 on acetylcholinesterase (setting [2]) amounted to 190 nM. Consider `Nc1c2c(nc3ccccc13)CSC2` [9-Amino-1,3-dihydrothieno[3,4-b]quinoline], for which the IC50 on acetylcholinesterase (setting [2]) is 47 nM. The “% of animals” value in assay [1] (dose 0.31 mg/kg body weight) amounted to 14%.
